The numbers were not newly measured in patent US20160114057A1, “MODULAR PROTEIN DRUG CONJUGATE THERAPEUTIC” (ZYMEWORKS INC., priority 2013, published 2016), which cites them from elsewhere.

The subject of data set [1] is P388.
Data set [2] has as its system colon 26.
Data set [3] relates to DLD-1.
Data set [4] has as its system PC-13.
The test system of data set [5] is MKM-45.
The target in data set [6] is histone deacetylase. The note with it: inhibits histone deacetylase.
For data set [7], the system named is A549 (lung).
For data set [8], the system named is A-549 (epidermoid carcinoma).
In data set [9] the test system is A-498 (kidney).
Data set [10] has as its system SK-OV-3 (ovary).
Data set [11] concerns U-937 (lymphoma).
Data set [12] deals with MCF-7 (breast).
Data set [13] relates to MCF-7/ADR.
For data set [14] the following is noted: KB-31 (melanoma).
For data set [15], the system named is HCT-116.
Data set [16] relates to various tumor cell lines.
For data set [17] the following is noted: human, in vivo.
Data set [18] relates to NCI tumor panel (60 cell line). The note with it: NCI tumor panel; range over cell lines.
Assay in data set [19]: not given
The source holds these as a separate data set.

Assay in data set [20]: not given
The source holds these as a separate data set.

The conditions of data set [21]: human.
For data set [22], the system named is K562 (CML).
Data set [23] deals with A431 (EC).
The test system of data set [24] is MKN28 (GI).
The test system of data set [25] is tumors in animal models. The note with it: tumor types as in Table 1.
Data set [26] deals with colon.
Data set [27] relates to lung.
The test system of data set [28] is KB. To be noted: KB.
The test system of data set [29] is HT-29 (colon). The note with it: cell culture.
For data set [30] the following is noted: i.p. in mice.
In data set [31] the test system is A2780.
Data set [32] relates to HL-60.
Data set [33] deals with MEL-28. To be noted: cell culture.
Data set [34] has as its system CD33+ cells (HL-60, NOMO-1, and NKM-1). To be noted: at 100 ng/mL.

Where two headings read alike, the source gives them in different places. Where a SMILES comes first, the peptide text is derived from it. [ ]: non-standard residue; d: D form. Aoe = N[C@@H](CCCCCC(=O)[C@@H]1CO1)C(=O)O; Aib = CC(C)(N)C(=O)O Where only a bound is given, the exact number is not on record here.

On to `CCC1/C=C/C=C/CC(C)C(O)C(C)(O)C(=O)CC(O)C(C)C(O)C(C)C(O)C(C)/C=C/C(=O)OC2C(C)C(CC1)OC1(CCC(C)C(CC(C)O)O1)C2C` (stereo not drawn) [BE-56384], for which the IC50 in data set [1] is recorded as 0.1 P388 ng/mL; in data set [2], 0.29 colon 26 ng/mL; in data set [3], 34 DLD-1 ng/mL; in [4], 0.12 PC-13 ng/mL; in [5], 0.12 MKM-45 ng/mL.
Regarding `CC1(C)NC(=O)[C@H](CCCCCC(=O)[C@@H]2CO2)NC(=O)[C@H]2CCCN2C(=O)[C@H](Cc2ccccc2)NC1=O` [Chlamydocin] (cyclo([Aib]F[dP][Aoe])), the IC50 in [6] was 1.3 nM.
Turning to `C/C1=C\C(C)C(C)OC(=O)CC(c2ccc(O)cc2)NC(=O)C(Cc2c(Cl)[nH]c3ccccc23)N(C)C(=O)C(C)NC(=O)C(C)C1` (stereo not drawn) [Chondramide D], the IC50 in data set [7] (A549 (lung), read-out: Activity (IC50)) was 14 nM; in [8], 5 nM; in data set [9], 15 nM; in [10], 5 nM; in data set [11] it was 3 nM.
Take `C/C(=C\c1csc(C)n1)[C@@H]1C[C@@H]2O[C@]2(C)CCC[C@H](C)[C@H](O)[C@@H](C)C(=O)C(C)(C)[C@@H](O)CC(=O)O1` [Epothione B]: the IC50 in data set [12] was 0.18 nM; in data set [13], 2.92 nM; in data set [14], 0.19 nM; in data set [15], 0.42 nM. For the same molecule, the “activity in cell culture (in words)” value in data set [16] was “broad activity”. The “clinical responses (in words)” value in data set [17] was “partial”. For the same molecule, under “in vivo”, the t1/2 was 2.5 h.
For `C/C=C1\NC(=O)[C@H]2CSSCC/C=C/[C@H](CC(=O)N[C@H](C(C)C)C(=O)N2)OC(=O)[C@H](C(C)C)NC1=O` [FR-901228], in data set [18], the IC50 is 0.56 to 4.1 nM. The results for the “toxic dose (LD50)” value in data set [19] (ip) and in data set [19] (iv) were 6.4 mg/kg and 10 mg/kg, respectively. The “Toxicity (in words)” value in data set [20] is “toxicity, lymphoid”. For the same molecule, in [21], the dose limiting toxicity entry is given as “(human) 18 mg/Kg;”. The t1/2 entry (human) is “t1/2 of 8 hrs”.
Turning to `COc1c(O)c2c(c3cc(C(=O)N4CCc5c4c(O)c(OC)c4[nH]c(C(=O)N6CC7CC78C6=CC(=O)c6[nH]cc(C)c68)cc54)[nH]c13)CCN2C(C)=O` (stereo not drawn) [Gilvusmycin], the IC50 in data set [1] is 0.08 P388 ng/mL; in data set [22] it was 0.86 K562 (CML) ng/mL; in data set [23], 0.72 A431 (EC) ng/mL; in data set [24], 0.75 MKN28 (GI); ng/mL; in data set [16] (P388, K562, A431, MKN28, read-out: IC50 (for all)), under 1 nM.
Consider `C=C1C[C@@H]2CCO[C@H]3[C@@H]4C[C@H]5CC[C@H](CC(=O)C[C@@H]6[C@@H](OC)[C@@H](C[C@H](O)CO)O[C@H]6C[C@H]6O[C@@H](CC[C@@H]1O2)C[C@@H](C)C6=C)O[C@@H]5[C@@H]1OCC[C@@H]3O[C@H]41` [Halichondrin B analogs], for which the “activity in animal models (in words)” value in [25] is “active (tumor”.
As for `CC[C@@H]1/C=C/C=C/C[C@H](C)[C@@H](O)[C@](C)(O)C(=O)[C@H](C)[C@@H](O)[C@H](C)C(=O)[C@H](C)[C@@H](O)[C@H](C)/C=C/C(=O)O[C@H]2[C@@H](C)[C@@H](CC1)O[C@@]1(CC[C@@H](C)[C@@H](C[C@H](C)O)O1)[C@@H]2CC` [NK-1301129], the entries for the “Activity (IC50)” value in data set [26] and in [27] were 25 ng/mL colon and 8.5 ng/mL lung, respectively.
As to `NC[C@H]1[C@H]2CN3C(=O)c4cccn4[C@H]4NC(N)=NC43[C@H]2[C@@]2(N=C(N)N[C@@H]2O)[C@H]1Cl` (stereo partly drawn) [Palauamine], the IC50 is recorded as 0.1 P388 micrograms/mL in data set [1] (cell culture); 10 KB micrograms/mL in data set [28] (cell culture); 0.2 A549 (lung) micrograms/mL in data set [7] (cell culture, A549); 2 HT-29 (colon) micrograms/mL in data set [29]. Moreover, the LD50 entry in [30] is “is 13 mg/Kg”.
In the case of `CCSC1SCC2C(=O)N(C)C3(CC3C)C(=O)OCC(NC(=O)c3nc4ccccc4cc3O)C(=O)NC(C)C(=O)N(C)C1C(=O)N(C)C1(CC1C)C(=O)OCC(NC(=O)c1nc3ccccc3cc1O)C(=O)NC(C)C(=O)N2C` (stereo not drawn) [SW-163E], the IC50 in [1] (read-out: Activity (IC50)) is 0.3 nM; in data set [31], 0.2 nM; in [28] (read-out: Activity (IC50)), 0.4 nM; in data set [26] it was 1.6 nM; in data set [32] it was 1.3 nM. The “Toxicity (in words)” value in data set [20] is listed as “low toxicity (mice”.
Take `C=CC(C)(C)OC[C@H]1NC(=O)[C@H]([C@@H](C)OC(C)(C)C=C)NC(=O)C2CSC(N2)[C@@H](Cc2ccccc2)NC(=O)[C@@H]2CCCN2C(=O)C(C)NC(=O)[C@H]([C@@H](C)CC)NC1=O` (stereo partly drawn) [Trunkamide A]: the IC50 is 0.5 P388; micrograms/mL in [1] (cell culture); 0.5 A549; micrograms/mL in data set [7] (cell culture, A549); 0.5 HT-29; micrograms/mL in data set [29]; 1.0 MEL-28 micrograms/mL in [33].
Regarding `C=CCNC1=C2C[C@@H](C)C[C@H](OC)[C@H](O)[C@@H](C)/C=C(\C)[C@H](OC(N)=O)[C@@H](OC)/C=C\C=C(/C)C(=O)NC(=CC1=O)C2=O` [Variant 17-AAG], the “activity in animal models (in words)” value in data set [25] is recorded as “models active”. Further, under “i.v.”, the t1/2 is about 1.5 h.
For gemtuzumab ozogamicin, the “killing of CD33+ cells (in words)” value in [34] is “Kills CD33+ cells”. For the same molecule, the “Toxicity (in words)” value in [20] is listed as “mild toxicity”.
